What all share (format): biochemical
Assay [1] deals with T1, trypanothione reductase (TbTR) (Trypanosoma brucei, UniProt P39051).
T1 construct: gene TPR
As to the kind of experiment: NADPH-consumption TR assay on recombinant enzyme, % inhibition at […] after […] min preincubation; dilution assay. Conditions: read-out: TbTR / % Inhibition at c = 100 μM Preincubation Time (min).

The target in assay [2] is T2, trypanothione reductase (TcTR) (Trypanosoma cruzi, UniProt P28593).
T2 construct: gene TPR
As to the kind of experiment: NADPH-consumption TR assay on recombinant enzyme, % inhibition at […] after […] min preincubation. Conditions: read-out: TcTR / % Inhibition at c = 100 μM Preincubation Time (min).

Assay [3] concerns the target T1, trypanothione reductase (TbTR). As to the kind of experiment: NADPH-consumption TR assay on recombinant enzyme; Lineweaver-Burk kinetics; dilution assay (irreversible, time-dependent).

T1 sequence (P39051 whole entry): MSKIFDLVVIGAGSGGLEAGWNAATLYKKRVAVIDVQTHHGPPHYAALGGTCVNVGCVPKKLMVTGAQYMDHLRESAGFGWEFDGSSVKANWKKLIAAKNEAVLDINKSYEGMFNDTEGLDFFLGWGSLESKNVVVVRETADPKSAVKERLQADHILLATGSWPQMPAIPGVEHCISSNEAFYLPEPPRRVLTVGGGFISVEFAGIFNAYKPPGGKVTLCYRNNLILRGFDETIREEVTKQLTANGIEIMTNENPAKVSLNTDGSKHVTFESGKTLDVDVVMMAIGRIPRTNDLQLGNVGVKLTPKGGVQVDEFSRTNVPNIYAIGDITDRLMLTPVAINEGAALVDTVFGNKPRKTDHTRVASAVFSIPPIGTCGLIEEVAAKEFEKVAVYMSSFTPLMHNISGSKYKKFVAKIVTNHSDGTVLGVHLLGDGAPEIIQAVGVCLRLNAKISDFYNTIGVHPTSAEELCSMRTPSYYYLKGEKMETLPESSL
T2 sequence (P28593 whole entry): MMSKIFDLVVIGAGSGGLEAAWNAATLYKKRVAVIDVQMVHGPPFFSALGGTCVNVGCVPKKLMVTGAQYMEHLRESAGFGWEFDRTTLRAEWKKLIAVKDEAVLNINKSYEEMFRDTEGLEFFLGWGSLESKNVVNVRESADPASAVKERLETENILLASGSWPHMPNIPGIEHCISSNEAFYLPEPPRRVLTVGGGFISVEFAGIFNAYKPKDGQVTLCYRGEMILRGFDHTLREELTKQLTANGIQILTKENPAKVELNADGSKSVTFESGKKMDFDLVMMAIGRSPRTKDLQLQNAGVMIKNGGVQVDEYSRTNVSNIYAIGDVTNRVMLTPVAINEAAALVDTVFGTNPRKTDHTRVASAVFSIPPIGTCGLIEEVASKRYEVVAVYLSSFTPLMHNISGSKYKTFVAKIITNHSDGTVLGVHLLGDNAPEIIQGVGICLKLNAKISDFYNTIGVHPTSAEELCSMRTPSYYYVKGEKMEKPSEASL

With `C=C(C)C(=O)O[C@@H]1C[C@@]2(C)OC(=CC2=O)C(=C)C[C@H]2OC(=O)C(=C)[C@H]12` [compound 2, 4,15-iso-atriplicolide methacrylate], the inhibition at 100 µM in assay [1] was found to be 84%; in assay [2], 41 ± 1%.

Consider `C=C1C[C@H]2OC(=O)C(=C)[C@@H]2[C@H](OC(=O)C(C)C)C[C@@]2(C)OC1=CC2=O` [compound 3, 4,15-iso-atriplicolide isobutyrate], for which the inhibition at 100 µM in assay [1] is 79%; in assay [2], 80%.

For `C=C1C[C@H]2OC(=O)C(=C)[C@@H]2[C@H](OC(=O)/C(C)=C/C)C[C@@]2(C)OC1=CC2=O` [compound 1, 4,15-iso-Atriplicolide tiglate], the Ki in assay [3] was determined as 128 ± 8 µM. Besides, the inhibition at 100 µM in assay [2] came out at 89 ± 1%.
